Results as given in PubChem BioAssay AID248 (DTP/NCI, 2004).
Values joined by “and” are separate entries in the source; they are usually repeats but may differ in a detail not shown here. Equal values may be shown once. Inconclusive results and toxic doses are left out.

System: L1210 leukemia ip in BDF1 mice, survival T/C
Test: NCI In Vivo Anticancer Drug Screen. Data for tumor model L1210 Leukemia (intraperitoneal) in B6D2F1 (BDF1) mice
Settings: endpoint: mean survival time, higher = longer survival
Procedure, shortened: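 Antitumor effect is assessed in tumor-bearing animals. Survival in the compound arm is compared with a vehicle-dosed control arm and expressed as their quotient.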

[1] = dose: 100.0 mg/kg/injection, schedule: Q01DX001 (ip), vehicle: Klucel (hydroxypropylcellulose) (HPC)
[2] = dose: 200.0 mg/kg/injection, schedule: Q01DX001 (ip), vehicle: Klucel (hydroxypropylcellulose) (HPC)
[3] = dose: 400.0 mg/kg/injection, schedule: Q01DX001 (ip), vehicle: Klucel (hydroxypropylcellulose) (HPC)
[4] = dose: 200.0 mg/kg/injection, schedule: Q04DX003 (ip), vehicle: Klucel (hydroxypropylcellulose) (HPC)
[5] = dose: 100.0 mg/kg/injection, schedule: Q01DX001 (ip), vehicle: carboxymethylcellulose (CMC)
[6] = dose: 200.0 mg/kg/injection, schedule: Q01DX001 (ip), vehicle: carboxymethylcellulose (CMC)
[7] = dose: 100.0 mg/kg/injection, schedule: Q01DX001 (ip), vehicle: saline
[8] = dose: 100.0 mg/kg/injection, schedule: Q01DX009 (ip), vehicle: saline
[9] = dose: 100.0 mg/kg/injection, schedule: Q04DX003 (ip), vehicle: saline
[10] = dose: 200.0 mg/kg/injection, schedule: Q01DX001 (ip), vehicle: saline
[11] = dose: 200.0 mg/kg/injection, schedule: Q04DX003 (ip), vehicle: saline
[12] = dose: 400.0 mg/kg/injection, schedule: Q01DX001 (ip), vehicle: saline
[13] = dose: 400.0 mg/kg/injection, schedule: Q01DX009 (ip), vehicle: saline
[14] = dose: 400.0 mg/kg/injection, schedule: Q04DX003 (ip), vehicle: saline
[15] = dose: 100.0 mg/kg/injection, schedule: Q04DX002 (ip), vehicle: saline
[16] = dose: 200.0 mg/kg/injection, schedule: Q04DX002 (ip), vehicle: saline
[17] = dose: 400.0 mg/kg/injection, schedule: Q04DX002 (ip), vehicle: saline

SMILES: COc1cccc(N(CCO)CCO)c1OC
- T/C (dose: 3.75 mg/kg/injection, schedule: Q01DX Z (ip), vehicle: saline): 93 % of control
- T/C (dose: 7.5 mg/kg/injection, schedule: Q01DX Z (ip), vehicle: saline): 93 % of control
- T/C (dose: 15.5 mg/kg/injection, schedule: Q01DX Z (ip), vehicle: saline): 97 % of control
- T/C (dose: 31.0 mg/kg/injection, schedule: Q01DX Z (ip), vehicle: saline): 97 % of control
- T/C (dose: 62.5 mg/kg/injection, schedule: Q01DX Z (ip), vehicle: saline): 96 % of control
- T/C (dose: 125.0 mg/kg/injection, schedule: Q01DX Z (ip), vehicle: saline): 101 % of control
- T/C (dose: 250.0 mg/kg/injection, schedule: Q01DX Z (ip), vehicle: saline): 97 % of control
- T/C (dose: 500.0 mg/kg/injection, schedule: Q01DX Z (ip), vehicle: saline): 101 % of control

SMILES: C/C(=N\NC(=S)Nc1cc(I)ccc1C)c1cc([N+](=O)[O-])c(O)cc1O
- T/C (dose: 12.5 mg/kg/injection, schedule: Q04DX002 (ip), vehicle: Klucel (hydroxypropylcellulose) (HPC)): 102 % of control
- T/C (dose: 25.0 mg/kg/injection, schedule: Q04DX002 (ip), vehicle: Klucel (hydroxypropylcellulose) (HPC)): 97 % of control
- T/C (dose: 50.0 mg/kg/injection, schedule: Q04DX002 (ip), vehicle: Klucel (hydroxypropylcellulose) (HPC)): 105 % of control

SMILES: COC(=O)C1=C(C(=O)OC)C2C=CC1C1(C)NC(=O)C21C (centres undefined)
- T/C (dose: 100.0 mg/kg/injection, schedule: Q04DX002 (ip), vehicle: Klucel (hydroxypropylcellulose) (HPC)): 94 % of control
- T/C (dose: 200.0 mg/kg/injection, schedule: Q04DX002 (ip), vehicle: Klucel (hydroxypropylcellulose) (HPC)): 91 % of control
- T/C (dose: 400.0 mg/kg/injection, schedule: Q04DX002 (ip), vehicle: Klucel (hydroxypropylcellulose) (HPC)): 97 % of control

SMILES: CSc1ncnc2c1nnn2C1CC(CO)C(O)C1O (centres undefined)
- T/C [1]: 95 % of control
- T/C [2]: 101 % of control
- T/C [3]: 102 % of control

SMILES: O=C1N(c2ccccc2)C(=O)N1c1ccccc1
- T/C (dose: 100.0 mg/kg/injection, schedule: Q04DX003 (ip), vehicle: Klucel (hydroxypropylcellulose) (HPC)): 93 % of control
- T/C [4]: 96 % of control

SMILES: Nn1nnc(-c2ccccc2)c1-c1ccccc1
- T/C [5]: 100 % of control
- T/C [6]: 100 % of control

SMILES: CCOC(=O)C(NC(=O)c1cc2sccc2[nH]1)C(=O)OCC
- T/C [1]: 96 % of control
- T/C [2]: 96 % of control
- T/C [3]: 98 % of control

SMILES: CN(C)N=Nc1n[nH]nc1C(N)=O
- T/C (dose: 50.0 mg/kg/injection, schedule: Q01DX001 (ip), vehicle: saline): 102 % of control
- T/C (dose: 66.0 mg/kg/injection, schedule: Q01DX Z (ip), vehicle: carboxymethylcellulose (CMC)): 112 % of control
- T/C [7]: 109 % of control and 118 % of control
- T/C [8]: 113 % of control
- T/C (dose: 100.0 mg/kg/injection, schedule: Q01DX Z (ip), vehicle: carboxymethylcellulose (CMC)): 106 % of control
- T/C [9]: 98 % of control
- T/C (dose: 134.0 mg/kg/injection, schedule: Q01DX009 (ip), vehicle: saline): 117 % of control
- T/C (dose: 168.0 mg/kg/injection, schedule: Q01DX Z (ip), vehicle: carboxymethylcellulose (CMC)): 116 % of control
- T/C [10]: 107 % of control and 118 % of control
- T/C [11]: 120 % of control
- T/C (dose: 287.0 mg/kg/injection, schedule: Q04DX003 (ip), vehicle: saline): 102 % of control
- T/C (dose: 287.5 mg/kg/injection, schedule: Q01DX001 (ip), vehicle: saline): 103 % of control
- T/C [12]: 115 % of control
- T/C [13]: 154 % of control
- T/C [14]: 124 % of control
- T/C (dose: 575.0 mg/kg/injection, schedule: Q01DX001 (ip), vehicle: saline): 109 % of control
- T/C (dose: 575.0 mg/kg/injection, schedule: Q04DX003 (ip), vehicle: saline): 110 % of control
- T/C (dose: 1150.0 mg/kg/injection, schedule: Q01DX001 (ip), vehicle: saline): 117 % of control
- T/C (dose: 1150.0 mg/kg/injection, schedule: Q04DX003 (ip), vehicle: saline): 112 % of control

SMILES: NC(=O)C1C2C=CC(O2)C1C(N)=O (centres undefined)
- T/C [15]: 89 % of control
- T/C [16]: 92 % of control

SMILES: CC(=O)C1=C(O)c2ccccc2C(=O)C1=O
- T/C (dose: 100.0 mg/kg/injection, schedule: Q01DX001 (ip), vehicle: water): 96 % of control

SMILES: COc1cccc(N=Cc2ccc(OC(=O)c3ccccc3)c(OC)c2)c1
- T/C (dose: 100.0 mg/kg/injection, schedule: Q01DX009 (ip), vehicle: Klucel (hydroxypropylcellulose) (HPC)): 91 % of control
- T/C (dose: 200.0 mg/kg/injection, schedule: Q01DX009 (ip), vehicle: Klucel (hydroxypropylcellulose) (HPC)): 94 % of control
- T/C (dose: 400.0 mg/kg/injection, schedule: Q01DX009 (ip), vehicle: Klucel (hydroxypropylcellulose) (HPC)): 92 % of control

SMILES: CCC1CC2c3cc(OC)c(OC)cc3CCN2CC1(O)Cc1nccc2c1CCCC2 (centres undefined)
- T/C [5]: 104 % of control
- T/C [6]: 103 % of control
- T/C (dose: 400.0 mg/kg/injection, schedule: Q01DX001 (ip), vehicle: carboxymethylcellulose (CMC)): 95 % of control

SMILES: CC(C)CN(CC(C)C)Cn1nnc2ccccc21
- T/C (dose: 75.0 mg/kg/injection, schedule: Q01DX001 (ip), vehicle: carboxymethylcellulose (CMC)): 100 % of control
- T/C (dose: 150.0 mg/kg/injection, schedule: Q01DX001 (ip), vehicle: carboxymethylcellulose (CMC)): 94 % of control
- T/C (dose: 300.0 mg/kg/injection, schedule: Q01DX001 (ip), vehicle: carboxymethylcellulose (CMC)): 108 % of control

SMILES: O=[As](O)(c1ccccc1)C1CCCCC1O (centres undefined)
- T/C (dose: 6.25 mg/kg/injection, schedule: Q01DX001 (ip), vehicle: saline with Tween-80): 97 % of control
- T/C (dose: 12.5 mg/kg/injection, schedule: Q01DX001 (ip), vehicle: saline with Tween-80): 98 % of control
- T/C (dose: 25.0 mg/kg/injection, schedule: Q01DX001 (ip), vehicle: saline with Tween-80): 111 % of control

SMILES: CCOC(=O)/C=C(\COC)c1ccccc1
- T/C [7]: 104 % of control
- T/C [10]: 104 % of control
- T/C [12]: 104 % of control

SMILES: COC(=O)NC1CCCC1I (centres undefined)
- T/C (dose: 75.0 mg/kg/injection, schedule: Q01DX001 (ip), vehicle: saline): 102 % of control
- T/C (dose: 150.0 mg/kg/injection, schedule: Q01DX001 (ip), vehicle: saline): 109 % of control
- T/C (dose: 300.0 mg/kg/injection, schedule: Q01DX001 (ip), vehicle: saline): 98 % of control

SMILES: O=S(=O)(O)CC1(CS(=O)(=O)O)COC1
- T/C [7]: 95 % of control
- T/C (dose: 100.0 mg/kg/injection, schedule: Q01DX009 (ip), vehicle: acetone): 118 % of control
- T/C [10]: 95 % of control
- T/C (dose: 200.0 mg/kg/injection, schedule: Q01DX009 (ip), vehicle: acetone): 106 % of control
- T/C [12]: 96 % of control
- T/C (dose: 400.0 mg/kg/injection, schedule: Q01DX009 (ip), vehicle: acetone): 95 % of control

SMILES: N#CC(C#N)=NNc1cccc(Cl)c1
- T/C [4]: 96 % of control
- T/C (dose: 400.0 mg/kg/injection, schedule: Q04DX003 (ip), vehicle: Klucel (hydroxypropylcellulose) (HPC)): 101 % of control

SMILES: CN(C)C(=O)CCCCC(=O)N(C)C
- T/C [15]: 94 % of control
- T/C [16]: 86 % of control
- T/C [17]: 105 % of control

SMILES: O=C1c2ccccc2C(=O)N1C1CCC(O)CC1 (centres undefined)
- T/C (dose: 25.0 mg/kg/injection, schedule: Q01DX009 (ip), vehicle: saline with Tween-80): 101 % of control
- T/C (dose: 25.0 mg/kg/injection, schedule: Q04DX003 (ip), vehicle: saline with Tween-80): 107 % of control
- T/C (dose: 50.0 mg/kg/injection, schedule: Q01DX009 (ip), vehicle: saline with Tween-80): 93 % of control
- T/C (dose: 50.0 mg/kg/injection, schedule: Q04DX003 (ip), vehicle: saline with Tween-80): 102 % of control
- T/C (dose: 100.0 mg/kg/injection, schedule: Q01DX001 (ip), vehicle: saline with Tween-80): 103 % of control
- T/C (dose: 100.0 mg/kg/injection, schedule: Q01DX009 (ip), vehicle: saline with Tween-80): 103 % of control
- T/C (dose: 100.0 mg/kg/injection, schedule: Q04DX003 (ip), vehicle: saline with Tween-80): 102 % of control

SMILES: C=C/C=C1\CCOC1=O
- T/C [7]: 102 % of control
- T/C [8]: 101 % of control and 112 % of control
- T/C [15]: 100 % of control and 111 % of control
- T/C [9]: 112 % of control
- T/C [10]: 116 % of control
- T/C (dose: 200.0 mg/kg/injection, schedule: Q01DX009 (ip), vehicle: saline): 104 % of control and 118 % of control
- T/C [16]: 104 % of control
- T/C [11]: 100 % of control
- T/C [12]: 110 % of control
- T/C [13]: 107 % of control and 115 % of control
- T/C [17]: 100 % of control and 102 % of control
- T/C [14]: 115 % of control
